Measured values published in paper PMC12794274, “Therapeutic potential of Sheng-Xian-Tang in doxorubicin-induced chronic heart failure by regulation of phenylalanine metabolism disruption” (Chinese Medicine, 2026).
Read-outs that look alike come from different tables or passages of the source.

Key:
AML12 cells = assay: AML12 cell viability (CCK8); type: cell-based
Method: (§1) Mouse hepatocellular cell lines (AML12), purchased from the Shanghai Cell Bank of Chinese Academy of Sciences (Shanghai, China), were cultured in Dulbecco’s Modified Eagle Medium (DMEM) supplemented with 10% fetal bovine serum (FBS) and 2 mM L-glutamine and 1% pyruvate and maintained at 37 °C in a […], 5% CO2 incubator. Cells were seeded at a density of 5 × 10^5 cells/well in 6-well plates. […] Cells’ survival rate was detected by Cell Counting Kit-8 (CCK8) Reagents (Thermo Scientific, Singapore).

[1] = system: phenylalanine hydroxylase (PAH); assay: PAH expression in liver and heart (western blotting, immunofluorescence); type: in vivo, rat; conditions: experiment II; DOX vs CON, co-treatments vs DOX
Method: Immunofluorescence staining was performed on tissue sections to detect phenylalanine hydroxylase (PAH), prostaglandin-endoperoxide synthase 2 (PTGS2), and reactive oxygen species (ROS). Primary antibodies against PAH and PTGS2 were used, while ROS was detected using the DCFH-DA probe. Nuclei were counterstained with DAPI. Images were captured using a fluorescence microscope.
Protein was extracted from liver or heart tissue samples (30 mg) using lysis buffer. Total protein concentration was determined using a BCA protein assay kit (Thermo Fisher Scientific, USA). Equal amounts of protein from each sample were separated on 10–12% SDS-PAGE gels and transferred to PVDF membranes. Membranes were blocked with quick blocking buffer for 30 min, then incubated with anti-PAH primary antibody (1:1000 dilution) overnight at 4 °C. After washing, membranes were incubated with a secondary antibody for 1 h at 37 °C. Protein bands were visualized using an Odyssey infrared imaging system (JS-1070, Shanghai Peiqing Science & Technology Co., Ltd, China). Band intensities were quantified using ImageJ software.

heart tissues = assay: Transmission electron microscopy of heart tissue; type: in vivo, rat; conditions: experiment II; DOX alone, co-treatments vs DOX
Method: Freshly excised heart tissues were immediately fixed in 2.5% glutaraldehyde at 4 °C overnight. After washing with 0.1 M cacodylate trihydrate buffer, samples were post-fixed with 1% osmium tetroxide for 1 h. Tissues were then dehydrated through a graded ethanol series, incubated in acetone, and embedded in epoxy resin. Ultrathin sections were mounted on copper grids and imaged using a Hitachi HT7800 transmission electron microscope (Tokyo, Japan).

[2] = system: cardiac tissues of DOX-induced CHF rats; assay: Heart histopathology (H&E, Masson) and TUNEL apoptosis detection; type: in vivo, rat; conditions: experiment II, co-treatment vs DOX group
Method: Cardiac tissues were fixed in 4% paraformaldehyde, embedded in paraffin, and sectioned at 4–5 μm thickness. Hematoxylin and eosin (H&E) staining was performed to assess histopathological changes, while Masson’s trichrome staining was used to evaluate cardiac fibrosis. Apoptosis in cardiac tissues was detected using a TUNEL assay kit (C1088, Beyotime, Shanghai, China).

[3] = system: DOX-induced chronic heart failure (CHF) rat model; assay: Echocardiography (LVEF%, LVFS%) in DOX-induced CHF rats; type: in vivo; conditions: experiment II, DOX + Phe 280 mg/kg, BH4 14 mg/kg or SXT 16 g/kg vs DOX group
Method: Experiment I, 48 rats were randomly divided into six groups: (1) the CON group; (2) the DOX group; (3) the DOX + enalapril (ENP, positive control, 1.8 mg/kg) group; (4) the DOX + SXT at low dose group (4 g/kg); (5) the DOX + SXT at middle dose group (8 g/kg); and […] the DOX + SXT at high dose group (16 g/kg). Except those rats in the CON group, the remaining rats received DOX at a 2.5 mg/kg per injection to a cumulative dose of 15 mg/kg. The dose of SXT for the low-dose group was set at 4 g/kg, based on the minimum human clinical daily dose (48.5 g, Table S2) converted to an equivalent rat dose using body surface area normalization (48.5 g/70 kg × 6.3 ≈ 4.4 g/kg, rounded to 4 g/kg). To evaluate a clear dose–response relationship, the medium and high doses were established at 8 g/kg and 16 g/kg, respectively, corresponding to 2 fold and 4 fold the low dose. This gradient dosing strategy is consistent with the Technical Guidelines for Pharmacodynamic Studies of Traditional Chinese Medicine and the Technical Guidelines for General Pharmacology Studies of Traditional Chinese Medicine and Natural Drugs, and is further supported by our previous study on the effective dose range of SXT in a rat model of doxorubicin-induced chronic heart failure. Heart function was monitored by echocardiography analysis at day 39, and the CHF model was considered to be successfully established when the left ventricular ejection fraction (LVEF%) values were reduced to 50%. Urinary samples were collected at five time points (0, 10, 20, 30, and 39 d), while fecal samples were collected before the rats were euthanized. Subsequently, the rats were anesthetized, and blood samples and heart and liver tissues were collected. All bio-samples were stored at − 80 °C until analysis.
Experiment II was conducted to specifically confirm the exacerbated cardiac abnormality of phenylalanine in the DOX-induced CHF rats. […] Heart function was detected as in the experiment I.
Echocardiographic (ECG) measurements were performed using M-mode tracings and continuous Doppler with a Vevo 2100 system (Visual Sonics, Toronto, ON, Canada). Rats were anesthetized with isoflurane prior to imaging. Cardiac function indices including left ventricular ejection fraction (LVEF%) and left ventricular fractional shortening (LVFS%) were measured and recorded.

phenylalanine metabolism = assay: Phenylalanine and tyrosine levels in rat serum, liver and heart tissues (LC/MS); type: in vivo; conditions: experiment II, DOX + phenylalanine 280 mg/kg, BH4 14 mg/kg or SXT 16 g/kg
Method: Phenylalanine and tyrosine in the different rat bio-samples were analyzed by LC/MS using an Agilent 1290 Ultra high-performance liquid chromatography (UHPLC) and an Agilent 6460 triple-quadrupole tandem mass spectrometer (QQQ-MS) (Agilent Inc, USA). Data were acquired by using an Agilent Zorbax SB-C18 column (3.0 × 150 mm, 5 μm) as described previously.

[4] = system: PAH activity in AML12 cells; type: cell-based; conditions: BH4 10 μM; timosaponin B-II, neomangiferin, anemarrhenasaponin I 5, 10, 20 μM; timosaponin AIII 0.1, 0.2, 0.5 μM
Method: (§2) Serum biochemical parameters including brain natriuretic peptide (BNP), creatine kinase (CK), lactate dehydrogenase (LDH), alanine aminotransferase (ALT), and aspartate aminotransferase (AST) were measured using commercial ELISA kits (Nanjing Jiancheng Bioengineering Institute, Nanjing, China) according to the manufacturer’s instructions. Superoxide dismutase (SOD), and malondialdehyde (MDA) levels in liver and heart tissues were measured using assay kits from Aifang Biotechnology (Changsha, China). Phenylalanine and tyrosine concentrations in the cell were determined using an ELISA kit from Abmart (Shanghai, China).
as §1

[5] = biological target: Phenylalanine hydroxylase (PAH) protein (Homo sapiens, UniProt P00439); assay: Surface Plasmon Resonance (SPR) analysis, Biacore T200; type: binding; conditions: PAH immobilized on CM5 chip, read-out: dissociation constant (Kd)
Chain of Phenylalanine hydroxylase (PAH) protein (P00439 whole entry): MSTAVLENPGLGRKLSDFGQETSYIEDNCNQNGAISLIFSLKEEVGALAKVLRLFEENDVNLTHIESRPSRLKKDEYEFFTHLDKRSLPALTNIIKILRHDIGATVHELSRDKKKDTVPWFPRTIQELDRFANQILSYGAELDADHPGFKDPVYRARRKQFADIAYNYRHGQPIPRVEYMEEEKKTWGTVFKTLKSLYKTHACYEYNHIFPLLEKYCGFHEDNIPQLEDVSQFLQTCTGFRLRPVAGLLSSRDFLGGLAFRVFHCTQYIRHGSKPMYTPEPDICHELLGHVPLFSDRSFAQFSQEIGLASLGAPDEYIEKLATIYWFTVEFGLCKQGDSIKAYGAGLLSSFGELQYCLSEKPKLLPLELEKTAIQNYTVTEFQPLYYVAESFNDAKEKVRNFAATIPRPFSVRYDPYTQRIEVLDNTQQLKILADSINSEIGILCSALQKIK
Method: SPR assays were conducted using a Biacore T200 system (GE Healthcare Life Sciences, USA). Phenylalanine hydroxylase (PAH) protein was immobilized on CM5 sensor chips using an amine-coupling kit (BR100050, GE Healthcare) following standard procedures. […] Samples were injected over reference and PAH-immobilized flow cells at a flow rate of 30 μL/min, with 120 s contact time and 120 s dissociation time. Kinetic parameters were calculated using Biacore T200 evaluation software.

DOX-induced CHF rats [6] = assay: Serum biochemical parameters (BNP, CK, LDH, ALT, AST) by ELISA kits; type: in vivo, rat; conditions: experiment II, co-treatment vs DOX group
Method: as §2, with “manufacturer's” for “manufacturer’s”, “Aifang” left out

DOX-induced CHF rats [7] = assay: Oxidative stress in heart and liver tissue (SOD, MDA, ROS, PTGS2); type: in vivo, rat; conditions: experiment II, co-treatment with DOX
Method: Immunofluorescence staining was performed on tissue sections to detect phenylalanine hydroxylase (PAH), prostaglandin-endoperoxide synthase 2 (PTGS2), and reactive oxygen species (ROS). Primary antibodies against PAH and PTGS2 were used, while ROS was detected using the DCFH-DA probe. Nuclei were counterstained with DAPI. Images were captured using a fluorescence microscope. Serum biochemical parameters including brain natriuretic peptide (BNP), creatine kinase (CK), lactate dehydrogenase (LDH), alanine aminotransferase (ALT), and aspartate aminotransferase (AST) were measured using commercial ELISA kits (Nanjing Jiancheng Bioengineering Institute, Nanjing, China) according to the manufacturer's instructions. Superoxide dismutase (SOD), and malondialdehyde (MDA) levels in liver and heart tissues were measured using assay kits from […] Biotechnology (Changsha, China). Phenylalanine and tyrosine concentrations in the cell were determined using an ELISA kit from Abmart (Shanghai, China).

COc1ccc(-c2coc3cc(O[C@@H]4O[C@H](CO)[C@@H](O)[C@H](O)[C@H]4O)ccc3c2=O)cc1O [Calycosin-7-O-β-D-glucoside]
non-cytoxic concentration (AML12 cells): 5 to 20 µM

COc1ccc(/C=C/C(=O)O)cc1O [Isoferulic acid]
non-cytoxic concentration (AML12 cells; AML12 cells): 5 to 20 µM

C[C@H](O)[C@H](O)[C@H]1CNc2nc(N)[nH]c(=O)c2N1 [BH4, tetrahydrobiopterin]
PAH expression in heart tissue [1]: decreased
PAH expression in liver tissue [1]: increased
mitochondrial ultrastructure of heart (electron microscopy) (heart tissues): reversed
DOX-induced cardiac injury and collagen accumulation (H&E and Masson) [2]: ameliorated
LVEF and LVFS / DOX-induced cardiac dysfunction [3]: partially alleviated
serum phenylalanine concentration (phenylalanine metabolism): 46.9791 µM
phenylalanine levels in AML12 cells increased by DOX [4]: markedly decreased
Kd [5]: 10.7 µM
DOX-induced increases in serum levels of BNP, CK, LDH, ALT and AST (DOX-induced CHF rats [6]): significantly inhibited
ROS production and PTGS2 expression in the heart (DOX-induced CHF rats [7]): effectively attenuated
non-cytoxic concentration (AML12 cells; mouse): 5 to 20 µM

C[C@H]1CC[C@@]2(OC1)O[C@H]1C[C@H]3[C@@H]4CC[C@@H]5C[C@@H](O[C@@H]6O[C@H](CO)[C@H](O)[C@H](O)[C@H]6O[C@@H]6O[C@H](CO)[C@@H](O)[C@H](O)[C@H]6O)CC[C@]5(C)[C@H]4CC[C@]3(C)[C@H]1[C@@H]2C [Timosaponin A-III]
phenylalanine levels in AML12 cells increased by DOX [4]: significantly reduce
Kd [5]: < 10 µM
non-cytoxic concentration (AML12 cells; mouse): 0.1 to 0.5 µM

CC(C)(O)[C@@H]1CC[C@](C)([C@H]2[C@@H](O)C[C@@]3(C)[C@@H]4C[C@H](O[C@@H]5O[C@H](CO)[C@@H](O)[C@H](O)[C@H]5O)[C@H]5C(C)(C)[C@@H](O[C@@H]6OC[C@@H](O)[C@H](O)[C@H]6O)CC[C@@]56C[C@@]46CC[C@]23C)O1 [Astragaloside IV]
non-cytoxic concentration (AML12 cells; AML12 cells): 5 to 20 µM

COc1ccc(-c2coc3cc(O[C@@H]4O[C@H](CO)[C@@H](O)[C@H](O)[C@H]4O)ccc3c2=O)cc1 [Ononin]
non-cytoxic concentration (AML12 cells; AML12 cells): 5 to 20 µM

C[C@H]1CC[C@@]2(OC1)O[C@H]1C[C@H]3[C@@H]4CC[C@@H]5C[C@@H](O[C@@H]6O[C@H](CO)[C@H](O)[C@H](O)[C@H]6O[C@@H]6O[C@H](CO)[C@@H](O)[C@H](O)[C@H]6O)[C@@H](O)C[C@]5(C)[C@H]4CC[C@]3(C)[C@H]1[C@@H]2C [Timosaponin A-II]
non-cytoxic concentration (AML12 cells; AML12 cells): 0.1 to 0.5 µM

COc1ccc(-c2coc3cc(O)ccc3c2=O)cc1O [Calycosin]
non-cytoxic concentration (AML12 cells; AML12 cells): 5 to 20 µM

C[C@@H]1C[C@H]2O[C@@]3(O[C@@H]2C(C)(C)O)[C@H](O)[C@@]2(C)[C@@H]4CC[C@H]5C(C)(C)[C@@H](O[C@@H]6OC[C@@H](O)[C@H](O)[C@H]6O)CC[C@@]56C[C@@]46CC[C@]2(C)[C@@H]13 [Cimigenol xyloside]
non-cytoxic concentration (AML12 cells; AML12 cells): 5 to 20 µM

C[C@@H](CC[C@@]1(O)O[C@H]2C[C@H]3[C@@H]4CC[C@@H]5C[C@@H](O[C@@H]6O[C@H](CO)[C@H](O)[C@H](O)[C@H]6O[C@@H]6O[C@H](CO)[C@@H](O)[C@H](O)[C@H]6O)CC[C@]5(C)[C@H]4CC[C@]3(C)[C@H]2[C@@H]1C)CO[C@@H]1O[C@H](CO)[C@@H](O)[C@H](O)[C@H]1O [Timosaponin B-II]
phenylalanine levels in AML12 cells increased by DOX [4]: significantly reduce
Kd [5]: < 10 µM
non-cytoxic concentration (AML12 cells; mouse): 5 to 20 µM

CC(C)CCC1(O)O[C@H]2[C@H](O)[C@H]3[C@@H]4CC[C@@H]5C[C@@H](O[C@@H]6O[C@H](CO)[C@H](O)[C@H](O)[C@H]6O[C@@H]6O[C@H](CO)[C@@H](O)[C@H](O)[C@H]6O)CC[C@]5(C)[C@H]4CC[C@]3(C)[C@H]2[C@@H]1C (stereo partly drawn) [Anemarrhenasaponin I]
phenylalanine levels in AML12 cells increased by DOX [4]: significantly reduce
Kd [5]: < 10 µM
non-cytoxic concentration (AML12 cells; AML12 cells): 5 to 20 µM

COc1ccc(-c2coc3cc(O)ccc3c2=O)cc1 [Formononetin]
non-cytoxic concentration (AML12 cells; AML12 cells): 5 to 20 µM

O=C(O)CCCCCCCC(=O)O [Azelaic acid]
non-cytoxic concentration (AML12 cells; mouse): 5 to 20 µM

O=c1c(-c2ccc(O)cc2)coc2cc(O)ccc12 [Daidzein]
non-cytoxic concentration (AML12 cells; mouse): 5 to 20 µM
